# What was measured:
# [1] = biological target: T1, human MCHR2 (Homo sapiens, UniProt Q969V1); test: Kinetic real-time cell-binding study (LigandTracer) on CHO-K1-hMCHR2 cells; format: cell-based; details: for Selectivity over MCHR2: CHO-K1-hMCHR1 vs CHO-K1-hMCHR2 living cells, Yes/No; for accumulation on CHO-K1-hMCHR2 cells: real-time cell binding, result in words
# T1 construct: host or cells: CHO-K1
# Description: (§1) Kinetic real-time cell-binding studies were performed on adherent Chinese hamster ovary (CHO-K1) cells (negative control) and CHO-K1 cells stably expressing the human MCHR1 or MCHR2 (PerkinElmer®; Waltham, MA, USA) with [^11C]SNAP-7941 and [^18F]FE@SNAP as previously reported. The cells were cultured in Ham’s F-12 medium (Gibco®, Life Technologies) with additives (1 % penicillin-streptomycin-glutamine (PSG), 10 % fetal bovine serum (FBS), and 300-μg/m Geneticin (G-418)) and incubated in a humidified 5 % CO2 atmosphere at 37 °C. For the preparation of the binding experiment, approximately 10^6 cells were seeded as a monolayer on the bottom of a tilted cell culture dish (100 mm × 20 mm, CELLSTAR®, Greiner Bio-One) and incubated with 2-ml medium for 24 h to avoid a spreading of the cells over the whole Petri dish. In the next step, the medium was discarded and the Petri dish was placed in a horizontal position with 10-ml medium for additional 24 h. Afterwards, the binding experiment was performed at ambient temperature with LigandTracer® Yellow (Ridgeview Instruments AB, Uppsala, Sweden) using 3-ml fresh medium (Ham’s F-12, serum-free). Unspecific radiotracer uptake was determined with native CHO-K1 cells. The experiments were initiated with baseline measurements for 10–15 min followed by radioligand incubation of [^11C]SNAP-7941 and [^18F]FE@SNAP. Binding to the seeded cells was ensured by adding different concentrations of the radiotracer (0.05–1000 nM). Association-time curves were monitored in real-time until the binding equilibrium was achieved. The observed rate constant of the association reaction (kobs) was determined using non-linear regression curve fitting algorithms implemented in GraphPad Prism 6.0 (GraphPad Software, Inc., San Diego, CA, USA), as previously reported. Cell survival was continuously examined using the perimeter trace (signal vs. dish position) of the LigandTracer® 1.0.1 software (Ridgeview Instruments AB, Uppsala, Sweden).
# [2] = system: native CHO-K1 cells; test: Kinetic real-time cell-binding study on native CHO-K1 cells (negative control, unspecific uptake); format: cell-based, Chinese hamster; details: result in words
# Description: as §1, with “Afterwards, the binding experiment was performed at ambient temperature with LigandTracer® Yellow (Ridgeview Instruments AB, Uppsala, Sweden) using 3-ml fresh medium (Ham’s F-12, serum-free).” left out, “The experiments were initiated with baseline measurements for 10–15 min followed by radioligand incubation of [^11C]SNAP-7941 and [^18F]FE@SNAP. Binding to the seeded cells was ensured by adding different concentrations of the radiotracer (0.05–1000 nM).” left out, “Cell survival was continuously examined using the perimeter trace (signal vs. dish position) of the LigandTracer® 1.0.1 software (Ridgeview Instruments AB, Uppsala, Sweden).” left out
# [3] = parameters: method as in earlier work; details: ultrafiltration, human pooled plasma; ref 30 and 34 (table), 32 and 36; cited from earlier work
# [4] = biological target: MCHR1; parameters: method as in PMID 28808288; details: previous experiments; read-out: Affinity to MCHR1 (Ki); cited from earlier work
# [5] = biological target: T2, human serum albumin (HSA) (Homo sapiens, UniProt P02768); test: Plasma protein binding using bioaffinity chromatography (CHIRALPAK HSA); format: in vitro ADME; details: human; bioaffinity chromatography on HSA stationary phase; read-out: Plasma protein binding (%PPB) / Binding to human serum albumin (converted)
# T2 construct: purchased Daicel Chemical Industries CHIRALPAK HSA, column-batch H13L-2405
# T2 sequence (P02768 25-609): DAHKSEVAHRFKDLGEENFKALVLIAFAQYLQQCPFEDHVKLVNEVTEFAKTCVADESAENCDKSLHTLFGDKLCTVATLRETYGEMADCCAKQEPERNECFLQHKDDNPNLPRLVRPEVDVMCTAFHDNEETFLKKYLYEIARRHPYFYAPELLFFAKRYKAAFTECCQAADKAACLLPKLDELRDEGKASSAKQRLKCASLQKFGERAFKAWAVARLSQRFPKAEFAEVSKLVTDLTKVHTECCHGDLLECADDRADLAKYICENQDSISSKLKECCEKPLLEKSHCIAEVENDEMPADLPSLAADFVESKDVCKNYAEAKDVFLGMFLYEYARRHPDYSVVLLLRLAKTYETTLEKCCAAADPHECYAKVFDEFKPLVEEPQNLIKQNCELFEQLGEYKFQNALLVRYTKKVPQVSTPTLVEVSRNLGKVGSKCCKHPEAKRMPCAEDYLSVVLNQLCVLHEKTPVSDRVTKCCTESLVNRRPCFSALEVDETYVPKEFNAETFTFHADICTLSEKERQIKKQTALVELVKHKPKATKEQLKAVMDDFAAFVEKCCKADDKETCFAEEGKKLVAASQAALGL
# Description: The binding of (±)-SNAP-7941 and FE@SNAP to human serum albumin (HSA) was examined by bioaffinity chromatography according to a previously published manuscript. In short, the analytes were diluted in 2-propanol and ammonium acetate buffer (0.5 mg/ml) and injected on the CHIRALPAK®HSA stationary phase (50 × 3 mm, 5 μm pore size, column-batch: H13L-2405, Daicel Chemical Industries, West Chester, PA, USA). Prior the experiments, the column was calibrated with reference standards, and the resulting regression equation was used to convert the logarithmic capacity factors (log(k′)) to the percent of plasma protein binding (%PPB). The calibration curves, as well as the experiments, were performed by triplicate injections and at least three times.
# T1 sequence (Q969V1 whole entry): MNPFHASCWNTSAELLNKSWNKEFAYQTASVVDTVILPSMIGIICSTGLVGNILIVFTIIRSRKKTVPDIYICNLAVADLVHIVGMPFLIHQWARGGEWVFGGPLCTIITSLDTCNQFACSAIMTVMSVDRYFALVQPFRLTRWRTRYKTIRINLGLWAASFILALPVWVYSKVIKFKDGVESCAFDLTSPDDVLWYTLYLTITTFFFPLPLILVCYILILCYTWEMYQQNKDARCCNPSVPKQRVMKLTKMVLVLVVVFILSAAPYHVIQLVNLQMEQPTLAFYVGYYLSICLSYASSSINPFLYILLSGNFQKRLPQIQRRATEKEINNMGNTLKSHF
Structure (SMILES),Selectivity over MCHR2 [1],accumulation on CHO-K1-hMCHR2 cells [1],accumulation on native CHO-K1 cells [2],Plasma free fraction (human) [3] [%],Ki [4] [nM],fraction unbound at 0.5 mg/ml [5],"observed association rate constant (kobs) ([1]; CHO-K1-hMCHR2 cells, ambient temperature, radiotracer 0.05–1000 nM, mean ± SEM) [min⁻¹]"
COCC1=C(C(=O)O[11CH3])C(c2ccc(F)c(F)c2)N(C(=O)NCCCN2CCC(c3cccc(NC(C)=O)c3)CC2)C(=O)N1 (stereo not shown) [[^11C]SNAP-7941],Yes,negligible accumulation,negligible accumulation,20.96 ± 1,3.91 ± 0.74,0.2,
COCC1=C(C(=O)OCC[18F])C(c2ccc(F)c(F)c2)N(C(=O)NCCCN2CCC(c3cccc(NC(C)=O)c3)CC2)C(=O)N1 (stereo not shown) [[^18F]FE@SNAP],No,exhibited accumulation,negligible accumulation,12.6 ± 0.2,9.98 ± 1.12,0.23,0.0918 ± 0.0031

# — publication PMC6449294, “SNAPshots of the MCHR1: a Comparison Between the PET-Tracers [^18F]FE@SNAP and [^11C]SNAP-7941” (Molecular Imaging and Biology, 2018)
